Test results published in US20080318788A1, “Microcapsule” (priority 2005, published 2008).

Assays:
[1] = Water solubility of UV protection dyes
[2] = Photo stabilisation study of COMPOUND (V) in gelatine microcapsules exposed to daylight, HPLC assay; format: physicochemical
Description: The HPLC system was from Waters comprising of two 510 pumps, a 717 plus Autosampler, a System Interface Module, a Lambda-Max 480 detector and Millennium Chromatography Manager software. Chromatography was achieved on a Zorbax ODS 5 μm C18 analytical column of dimension 4.6×250 mm internal diameter maintained at 35° C. Mobile phases were unmodified water (Milli-Q grade) in reservoir A and unmodified acetonitrile in reservoir B. Linear gradient elution was used with 70 to 90% B over the first 10 minutes, then 100% B for 3 minutes and returning to 70% B over 4 minutes. Injection cycle time was 20 minutes with a flow rate of 2 ml/min. The samples were either dissolved in acetonitrile or diethyl ether and 10 μl volume injected on to the column which was maintained at 35° C. Prior to use, mobile phase were degassed under vacuum with sonication and continuously sparged with helium. The naphthoquinones were detected by measurement of UV absorbance at 269 nm.
A batch of gelatine microcapsules containing 300 mg of COMPOUND (V) in 15 ml of Exxsol® D100 was produced.
The capsule slurry was washed repeatedly with water to remove debris and filtered to obtain a wet cake. An aliquot of the wet cake (11.3 g) was made up to 50 ml and dyed brown with Chocolate Brown (500 mg, equivalent to 10 mg/ml solution). Aliquots (200 μl) of microcapsule slurry of brown and undyed capsules were applied to glass microscope slides in duplicate. The slurry from each batch was spread to form a monolayer of microcapsules on each slide. The slides were air dried in a dark at room temperature (≅21° C.) and exposed to daylight on a south-facing windowsill for various time periods. Two slides from each batch were analysed per time point post of exposure. Unexposed slides stored in the dark were used as time zero reference.
The contents of the capsules were extracted by rupturing the capsules, by rolling a glass rod on the slides, and washing both the rod and the slide with diethyl ether. The extracts were made up to 10 ml and assayed by HPLC.

Compound: CCN(CC)c1ccc(N=Nc2ccccc2C(=O)O)cc1 [Ethyl Red]
- WATER SOLUBILITY [1]: 3 mg/mL

Compound: Cc1nn(-c2ccccc2)c([O-])c1N=Nc1cc([N+](=O)[O-])cc(S(=O)(=O)[O-])c1[O-].[Cr+3].[Na+].[OH-] [Acid Orange 74]
- WATER SOLUBILITY [1]: 20 mg/mL

Compound: O=S(=O)([O-])c1ccc2c(N=Nc3ccccc3)c(O)ccc2c1.[Na+] [Crocein Orange G]
- WATER SOLUBILITY [1]: 40 mg/mL

Compound: CC(=O)OC1=C(C(C)CCC[Si](C)(C)C)C(=O)c2ccccc2C1=O (stereo not shown) [COMPOUND (V)]
- amount of COMPOUND (V) remaining, % of the initial amount ([2]; Chocolate Brown dyed gelatine capsules, 88 hours exposure to daylight (8 hours daylight over 11 days)): ~80%
- amount of COMPOUND (V) remaining, % of the initial amount ([2]; undyed impervious gelatine capsules, 6 hours exposure to daylight): 60%
- amount of COMPOUND (V) remaining, % of the initial amount ([2]; undyed impervious gelatine capsules, 16 hours exposure to daylight): 23%
- amount of COMPOUND (V) remaining, % of the initial amount ([2]; undyed impervious gelatine capsules, 40 hours exposure to daylight (8 hours daylight over 5 days)): 6%

Compound: O=S1(=O)OC(c2ccc(O)c(Cl)c2)(c2ccc(O)c(Cl)c2)c2ccccc21 [Chlorophenol Red]
- WATER SOLUBILITY [1]: 60 mg/mL

Compound: Nc1ccc(N=Nc2cccc(N=Nc3ccc(N)cc3N)c2)c(N)c1 [Bismark Brown Y]
- WATER SOLUBILITY [1]: 50 mg/mL

Compound: Nc1cc(N)c(N=Nc2cc([N+](=O)[O-])cc([N+](=O)[O-])c2O)cc1Cl [Mordant Brown 48]
- WATER SOLUBILITY [1]: 40 mg/mL

Compound: Nc1cc(N)c(S(=O)(=O)[O-])cc1N=Nc1cc([N+](=O)[O-])ccc1O.[Na+] [Mordant Brown 33]
- WATER SOLUBILITY [1]: 20 mg/mL

Compound: Acid Orange 51
- WATER SOLUBILITY [1]: 30 mg/mL

Compound: Cc1cc(N=Nc2ccc(C)c(N=Nc3cc(C)c(N)cc3N)c2)c(N)cc1N [Bismark Brown R]
- WATER SOLUBILITY [1]: 70 mg/mL

Compound: Cc1cc(O)ccc1C1(c2ccc(O)cc2C)OS(=O)(=O)c2ccccc21 [m-Cresol Purple]
- WATER SOLUBILITY [1]: 2 mg/mL

Compound: Cc1cc(N=Nc2cc([N+](=O)[O-])cc([N+](=O)[O-])c2O)c(N)cc1N [Mordant Brown 4]
- WATER SOLUBILITY [1]: 60 mg/mL

Compound: Nc1cc(N)c(N=Nc2cccc3c(S(=O)(=O)O)cccc23)cc1N=Nc1cc([N+](=O)[O-])ccc1O.[Na] [Mordant Brown 1]
- WATER SOLUBILITY [1]: 60 mg/mL

Compound: CC1=NN(c2ccc(S(=O)(=O)[O-])cc2)C(=O)C1N=Nc1ccc(-c2ccc(N=Nc3ccc(OS(=O)(=O)c4ccc(C)cc4)cc3)c(S(=O)(=O)[O-])c2)cc1.[Na+].[Na+] (stereo not shown) [Acid Orange 63]
- WATER SOLUBILITY [1]: 50 mg/mL

Compound: CC(=O)Nc1ccc2nc3c4ccccc4c(=N)cc-3oc2c1.Cl [Darrow Red]
- WATER SOLUBILITY [1]: 1 mg/mL

Compound: CCN(CC)c1ccc(N=Nc2ccc(S(=O)(=O)[O-])cc2)cc1.[K+] [Ethyl Orange]
- WATER SOLUBILITY [1]: 100 mg/mL
